≈ marks a conversion by molar mass, not a printed value.
Key:
[1] = biological target: CDK1:CCNB1 (Homo sapiens (Human), UniProt P06493); assay: NanoBRET assay in MCF-7 cells, CDK1; format: cell-based; conditions: NanoBRET, transfected MCF-7 cells, 2 hours; n = 1 or average; read-out: CDK1 IC50
Method in brief: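 Intracellular target engagement was measured by NanoBRET ratio (460 nm/610 nm) in live MCF-7 cells transiently carrying CDK4:CCND1 (Tracer K-7, 100 μM stock) or CDK1:CCNB1 (Tracer K-9, 400 μM stock).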

[2] = biological target: 379 non-CDK kinase (or non-CDK kinase-complex) targets; assay: Kinase profiling (SelectScreen, ThermoFisher); format: biochemical; conditions: compared with Compound 6
Text: Test compounds were profiled against a broad panel of kinases at ThermoFisher Scientific using the SelectScreen Kinase Profiling Services. Each kinase assay used one of the following assay technology protocols: • 1) Z-LYTE™ Screening Protocol and Assay Conditions (Revised 23 Jan. 2018 version) available at http://assets.thermofisher.com/TFS-Assets/BID/Methods-&-Protocols/20180123_SSBK_Customer_Protocol_and_Assay_Conditions.pdf; • 2) Adapta™ Screening Protocol and Assay Conditions (Revised 23 Jan. 2018 version) available at http://assets.thermofisher.com/TFS-Assets/BID/Methods-&-Protocols/20180123_SSBK_Adapta_Customer_Protocol_and_Assay_Conditions.pdf; or • 3) LanthaScreen™ Eu Kinase Binding Assay Screening Protocol and Assay Conditions (Revised 23 Jan. 2018 version) available at http://assets.thermofisher.com/TFS-Assets/BID/Methods-&-Protocols/20180123_SSBK_LanthaScreen_Binding_Customer_Protocol_and_Assay_Co nditions.pdf.

[3] = system: OVCAR3 cells; assay: Cell proliferation CyQUANT assay, OVCAR3; format: cell-based; conditions: Homo sapiens, OVCAR-3, 168 h; CyQUANT cell counts, 7 days
Procedure: An imaging-based assay was used to investigate changes in cell number in OVCAR3 cells (CCNE1-amplified ovarian cancer cell line) and SKOV3 cells (non-amplified ovarian cancer cell line) treated with test compounds.
Cells were plated in 384 well plates (Perkin-Elmer 6057300) in RPMI-1640/10% FBS/1× L-Glu at 500 cells per well in 30 μL and incubated with test compound at 37° C. and 5% CO2 for 7 days. Cells were then stained using the CyQuant Direct Cell Proliferation Assay Kit (Thermo Cat #C7026) in accordance with the kit protocol. The stained cells were imaged using an Operetta high content imager to generate cell counts and IC50 values were calculated relative to DMSO controls.

[4] = system: POLR2A Ser2 phosphorylation (CDK9); assay: POLR2A Ser2 phosphorylation imaging assay in MCF-7 cells; format: cell-based; conditions: Homo sapiens, MCF7, 2 h, MCF-7 cells, 2 hours; read-out: POLR2A Ser2 phosphorylation IC50
Method in brief: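 MCF-7 cells were fixed, permeabilised and immunostained for POLR2A phospho-Ser2, then imaged by high-content microscopy. Levels were normalised to controls and IC50 values derived.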

[5] = CLint assessment in human liver microsomes (HLM); format: in vitro ADME; conditions: 1 μM
Method in brief: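 Microsomes preincubated 8 min with NADPH, then compound added and incubated 30 min at 37° C. Remaining compound measured by LC-MS/MS. t1/2 and CLint calculated, with CLint scaled to incubation volume per mg microsomal protein.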

[6] = Aqueous thermodynamic solubility, shake-flask; format: physicochemical; conditions: aqueous phosphate buffer, 25 °C, pH 7.4, aqueous buffer, thermodynamic from solid, phosphate buffer 0.1 M, pH 7.4, 24 hours
Method in brief: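 After 24 h stirring at 25° C. in pH 7.4 phosphate buffer (0.1 M), solid-free supernatant from two centrifugations was quantified by UPLC/MS/MS after dilution in water. Compound was added as dried material after DMSO removal.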

[7] = system: 97 targets (GPCRs, ion channels, transporters, enzymes, kinases); assay: Secondary pharmacology panel (Eurofins CEREP); conditions: compared with Compound 6
Procedure: Secondary pharmacology assays were performed at Eurofins CEREP using standard experimental techniques. Specifically, radioligand binding assays were used to assess the ability of test compounds to interact with G-protein coupled receptors (GPCRs), ion channels, and transmembrane transporters. Assays measuring substrate turnover or phosphorylation by isolated proteins were used for enzyme and kinase targets, allowing direct determination of the mode of action of the tested compounds.

Sequence of CDK1:CCNB1 (P06493 whole entry): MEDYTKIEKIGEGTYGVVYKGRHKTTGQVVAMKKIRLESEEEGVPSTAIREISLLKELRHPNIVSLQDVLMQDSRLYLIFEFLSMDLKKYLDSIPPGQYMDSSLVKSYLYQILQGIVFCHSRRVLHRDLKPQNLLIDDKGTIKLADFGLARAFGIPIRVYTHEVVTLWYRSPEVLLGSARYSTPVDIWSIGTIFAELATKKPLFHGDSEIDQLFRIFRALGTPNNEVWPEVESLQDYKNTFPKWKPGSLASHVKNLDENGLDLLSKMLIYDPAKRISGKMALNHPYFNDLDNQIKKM
Sequence of CDK1:CCNB1 (P14635 whole entry partner): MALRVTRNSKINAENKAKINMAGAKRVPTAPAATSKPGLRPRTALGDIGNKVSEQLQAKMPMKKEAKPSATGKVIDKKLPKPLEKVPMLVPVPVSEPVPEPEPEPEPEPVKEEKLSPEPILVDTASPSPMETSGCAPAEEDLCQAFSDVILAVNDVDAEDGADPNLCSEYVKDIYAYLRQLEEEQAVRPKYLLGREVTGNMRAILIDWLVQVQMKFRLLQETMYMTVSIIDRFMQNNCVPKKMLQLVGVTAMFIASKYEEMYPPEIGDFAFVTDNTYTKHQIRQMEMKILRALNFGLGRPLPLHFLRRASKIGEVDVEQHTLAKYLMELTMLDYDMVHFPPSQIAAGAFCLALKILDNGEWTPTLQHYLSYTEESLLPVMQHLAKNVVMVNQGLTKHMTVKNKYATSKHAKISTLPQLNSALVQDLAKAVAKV

| IC50 [1] | IC50 [3] | IC50 [4] | HLM CLint [5] | solubility at 24 h [6] | SMILES | kinase inhibition profile [2] | secondary pharmacology profile [7] |
| --- | --- | --- | --- | --- | --- | --- | --- |
| 1800 nM | 373 nM | > 30 µM |  |  | CCNS(=O)(=O)N1CC[C@H](Nc2nc(N[C@@H](CC)[C@@H](C)O)nc3c2ncn3C)C1 [Example 53, (S)—N-ethyl-3-((2-(((2R,3S)-2-hydroxypentan-3-yl)amino)-9-methyl-9H-purin-6-yl)amino)pyrrolidine-1-sulfonamide] | broadly similar kinase inhibition profiles to Compound 6 |  |
| 342 nM | 201 nM | 17.6 µM |  |  | CCNS(=O)(=O)N1CC[C@H](Nc2nc(N[C@@H](CO)C3CC3)nc3c2ncn3C)C1 [Example 19, (S)-3-((2-(((R)-1-cyclopropyl-2-hydroxyethyl)amino)-9-methyl-9H-purin-6-yl)amino)-N-ethylpyrrolidine-1-sulfonamide] | broadly similar kinase inhibition profiles to Compound 6 |  |
| 114 nM | 53 nM | 3.9 µM | 46 µL/min/mg | 280 µM (≈ 134 µg/mL) | CCn1cnc2c(N[C@@H]3CN(S(=O)(=O)c4ncc[nH]4)C[C@H]3F)nc(N[C@@H](CO)C3CC3)nc21 (relative stereo) [Example 17, (R)-2-((6-(((3R*,4R*)-1-((1H-imidazol-2-yl)sulfonyl)-4-fluoropyrrolidin-3-yl)amino)-9-ethyl-9H-purin-2-yl)amino)-2-cyclopropylethan-1-ol] |  |  |
| 636 nM |  | 6.5 µM | 45.2 µL/min/mg | 48 µM (≈ 22.6 µg/mL) | CCn1cnc2c(N[C@H]3CCN(S(=O)(=O)NC)C3)nc(-c3cccc4c3CC[C@]4(C)O)nc21 (relative stereo) [Example 3, (S)-3-((9-ethyl-2-((R*)-1-hydroxy-1-methyl-2,3-dihydro-1H-inden-4-yl)-9H-purin-6-yl)amino)-N-methylpyrrolidine-1-sulfonamide] | broadly similar kinase inhibition profiles to Compound 6 | broadly similar secondary pharmacology to Compound 6 |
